Laboratory results published in patent US9593157B2, “Chimeric polypeptides comprising G protein-coupled receptors and VHH antibodies” (VIB VZW, priority 2013, dated 2017).

Key:
Assay type in all cases: binding
M2Δi3R-Nb9-1 = target: T1, M2Δi3R-Nb9-1 (Homo sapiens, UniProt P08172, A373T/DEL233-372/K374R/N2D/N3D/N6D/N9D); test: Comparative radioligand competition assay ([3H]-N methyl scopolamine) on Sf9 membranes expressing M2Δi3R-Nb9-1
T1 construct: linker […]; made in house; host or cells: Sf9 insect cells (baculovirus), membranes
T1 sequence (P08172 with tags, fused parts or gaps N2D/N3D/N6D/N9D/DEL233-372/A373T/K374R): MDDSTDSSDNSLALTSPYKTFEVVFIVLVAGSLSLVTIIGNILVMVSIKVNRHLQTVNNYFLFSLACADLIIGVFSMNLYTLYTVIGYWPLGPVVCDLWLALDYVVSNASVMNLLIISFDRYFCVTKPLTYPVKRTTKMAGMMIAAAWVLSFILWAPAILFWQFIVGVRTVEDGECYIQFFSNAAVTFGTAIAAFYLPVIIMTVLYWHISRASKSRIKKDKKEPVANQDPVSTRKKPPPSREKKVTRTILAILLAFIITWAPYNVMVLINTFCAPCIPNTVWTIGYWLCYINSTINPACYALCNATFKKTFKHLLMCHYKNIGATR
Method: (§1) Radioligand competition binding experiments were performed on Sf9 insect cell membranes expressing either M2Δi3R (no Single-domain antibody fused) or M2Δi3R-Nb9-1. […] After filtration, membranes retained on the filter plates were washed with ice-cold wash buffer (20 mM Tris-HCl pH7.4), and filters were dried for 1 hour at 50° C.

M2Δi3R = target: T2, M2Δi3R (Homo sapiens, UniProt P08172, A373T/DEL233-372/K374R/N2D/N3D/N6D/N9D); test: Comparative radioligand competition assay ([3H]-N methyl scopolamine) on Sf9 membranes expressing non-fused M2Δi3R; details: [3H]-NMS 0.5 nM
T2 construct: made in house; host or cells: Sf9 insect cells (baculovirus), membranes
T2 sequence (P08172 with tags, fused parts or gaps N2D/N3D/N6D/N9D/DEL233-372/A373T/K374R): T1 sequence (P08172 with tags, fused parts or gaps N2D/N3D/N6D/N9D/DEL233-372/A373T/K374R)
Method: as §1

hMor1-34GS-Nb33 = target: T3, hMor1-34GS-Nb33 (Homo sapiens, UniProt P35372); test: biochemical
T3 construct: HA signal peptide (N); made in house; host or cells: Sf9 insect cells (baculovirus), membranes

hMor1-34GS-Nb10 = target: T4, hMor1-34GS-Nb10 (Homo sapiens, UniProt P35372); test: biochemical
T4 construct: HA signal peptide (N); made in house; host or cells: Sf9 insect cells (baculovirus), membranes

M2Δi3R-Nb9-8 = target: T5, M2Δi3R-Nb9-8 (Homo sapiens, UniProt P08172, A373T/DEL233-372/K374R/N2D/N3D/N6D/N9D); test: Radioligand competition on M2Δi3R-Nb9-8 fusion (data not shown)
T5 construct: linker […]; His6 (C); made in house
T5 sequence (P08172 with tags, fused parts or gaps N2D/N3D/N6D/N9D/DEL233-372/A373T/K374R): T1 sequence (P08172 with tags, fused parts or gaps N2D/N3D/N6D/N9D/DEL233-372/A373T/K374R)

β2AR = β2AR (Homo sapiens, UniProt P07550); test: Affinity of Single-domain antibody for β2AR
[1] = target: T6, non-fused β2AR365N in presence of exogenously added Nb80 (Homo sapiens, UniProt P07550, E27Q/G16R/N187E); test: Radioligand competition assay on non-fused β2AR365N in complex with exogenously added Nb80; details: epinephrine bound active state; 5 μM Nb80 in 250 μl
T6 construct: made in house; host or cells: Sf9 insect cells (baculovirus), membranes; purified Nb80 added
Method: To compare the efficiency of fused versus non-fused Nb80 to stabilize the active state of β2AR, the pharmacological properties of the β2AR365N-Nb80 fusion was compared to the non-fused β2AR365N in complex with exogenously added Nb80. […] The β2AR365N-Nb69 fusion and β2AR365N in complex with exogenously added Nb69 were assayed in parallel as controls.
Radioligand competition binding experiments were performed on Sf9 insect cell membranes (5 μg total protein) expressing either β2AR365N (no Single-domain antibody fused), β2AR365N-Nb80 or β2AR365N-Nb69. […] Data represent the mean±SEM of each data point performed in triplicate.

Mor1 = Mor1 (Homo sapiens, UniProt P35372); test: Affinity of Single-domain antibody for Mor1

C[N+](C)(C)CC#CCN1CCCC1=O [oxotremorine M]
IC50 ratio IC50m2Δi3R/IC50highM2Δi3R-Nb9-1 (M2Δi3R-Nb9-1): 316
IC50 (M2Δi3R-Nb9-1; [3H]-NMS 0.5 nM, Sf9 membranes, IC50high): 310 nM
IC50 (M2Δi3R): 98400 nM

Cc1cc(O)cc(C)c1C[C@H](N)C(=O)N[C@H](CCCNC(=N)N)C(=O)N[C@H]1Cc2ccccc2CN(CCC(N)=O)C1=O [KGOP01]
IC50 (hMor1-34GS-Nb33): 3.8 nM
IC50Nb33/IC50Nb10 (fold preference) (hMor1-34GS-Nb33): 20
IC50 (hMor1-34GS-Nb10): 76.7 nM

C[N+](C)(C)CCOC(N)=O [carbachol]
affinity of M2Δi3R-Nb9-8 fusion compared to non-fused M2Δi3R (M2Δi3R-Nb9-8): higher affinity

B1: Nb69: mock Single-domain antibody specific for Muscarinic3 receptor, SEQ ID NO:15 (protein)
VHH: QVQLQESGGGLVQAGGSLRLSCTASGLTLSNYAMGWFRQAPGKEREFVAADTWNGNTYHQDSVKGRFTISRDNAKNTVYLQMNYLKPEDTAVYYCAARGSRRSAYYSSSDYTYRGQGTQVTVSS
modifications: Nb69
affinity for β2AR (β2AR): no detectable affinity

B2: Nb80: β2AR specific Single-domain antibody stabilizing the active state, SEQ ID NO:13 (protein)
VHH: QVQLQESGGGLVQAGGSLRLSCAASGSIFSINTMGWYRQAPGKQRELVAAIHSGGSTNYANSVKGRFTISRDNAANTVYLQMNSLKPEDTAVYYCNVKDYGAVLYEYDYWGQGTQVTVSS
modifications: Nb80
molar excess of exogenously added Nb80 over β2AR required to constrain the receptor with same efficiency as the fusion [1]: 12500 fold

B3: Nb10: Single-domain antibody specific for a chemokine GPCR, SEQ ID NO:20 (protein)
VHH: QVQLQESGGGLVQPGGSLRLSCAASGSFRSIVSMAWYRQAPGKQRELVASSNSGGSTNYADSVKGRFTISRDNAKNTVYLQMNSLKPEDTAVYWCNVQNRLPGFDAFSGRSIAETYWGQGTQVTVSS
modifications: Nb10
affinity for Mor1 (Mor1): no detectable affinity
